According to US7868026B2, “Therapeutic compounds” (Pfizer Inc., priority 2005, dated 2011):
Where two headings read alike, the source gives them in different places.

How the values were obtained:
Assay type in all cases: biochemical
CYP3A4 [1] = target: T1, CYP3A4 (Homo sapiens, UniProt P08684); test: Determination of compound Kiapp against recombinant CYP3A4 enzyme (BFC fluorescent substrate)
In short: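 Kiapp derived from initial velocities over the first 5 min of BFC (5 uM) oxidation, using Morrison's tight-binding equation for non-partial and Szedlacsek's for partial inhibitors. Inhibitor first pre-incubated ≥30 min with CYP3A4 (5.5 or 8 nM, ±b5) in pH 7.0 phosphate/TCEP/2% DMF at room temperature; 200 uM NADPH initiated.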

CYP3A4 [2] = target: T1, CYP3A4; test: Determination of IC50 against CYP3A4 by measurement of inhibition of testosterone metabolism (human liver microsomes, 6-β-OH-testosterone by LC-MS/MS); parameters: 0.1 mg/mL human liver microsomes; conditions: read-out: IC50 (Testo.)
In short: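 6-β-OH-testosterone formation was read by LC-MS/MS (MRM, internal standard, standard curve) after eight minutes. Reaction contained testosterone 25 μM, NADPH 1 mM and microsomal protein 0.1 mg/mL in pH 7.4 potassium phosphate (100 mM).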

CYP3A4 [3] = target: T1, CYP3A4; test: Determination of IC50 against CYP3A4 by measurement of inhibition of midazolam metabolism (human liver microsomes, 1-hydroxymidazolam by LC-MS/MS); parameters: 0.1 mg/mL human liver microsomes; conditions: 2 μM midazolam, 0.1 mg/mL human liver microsomes
In short: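 Human liver microsomes (0.1 mg/mL) incubated 8 min with 2 μM midazolam and 1 mM NADPH in 100 mM potassium phosphate, pH 7.4. 1-Hydroxymidazolam quantified by LC-MS/MS (MRM) as peak area ratio to internal standard against a metabolite standard curve.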

[4] = Baculo. enzyme preparation, read-out: Kiapp (BFC, Baculo.)
[5] = Super. enzyme preparation, read-out: Kiapp (BFC, Super.)

T1 sequence (P08684 whole entry): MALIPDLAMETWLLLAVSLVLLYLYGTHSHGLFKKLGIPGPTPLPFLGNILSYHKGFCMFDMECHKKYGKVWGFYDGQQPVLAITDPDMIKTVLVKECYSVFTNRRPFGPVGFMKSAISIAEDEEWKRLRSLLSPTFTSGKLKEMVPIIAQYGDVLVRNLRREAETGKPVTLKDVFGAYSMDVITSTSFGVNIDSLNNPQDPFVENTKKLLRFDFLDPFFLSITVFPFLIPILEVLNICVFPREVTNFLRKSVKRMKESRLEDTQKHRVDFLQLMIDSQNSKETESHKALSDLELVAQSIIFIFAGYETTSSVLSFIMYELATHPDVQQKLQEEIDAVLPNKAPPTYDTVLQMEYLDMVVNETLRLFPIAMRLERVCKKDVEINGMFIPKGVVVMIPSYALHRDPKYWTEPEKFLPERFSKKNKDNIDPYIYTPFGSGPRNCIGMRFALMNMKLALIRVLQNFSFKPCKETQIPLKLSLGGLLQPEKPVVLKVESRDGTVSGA

SMILES | Ki (CYP3A4 [1]; [4]) | Ki (CYP3A4 [1]; [5]) | IC50 (CYP3A4 [2]) | IC50 (CYP3A4 [3])
COc1cncc(NS(=O)(=O)c2ccc(F)cc2C(=O)N(C)C(C)C)c1 [Example 304, 5-fluoro-N-isopropyl-2-{[(5-methoxypyridin-3-yl)amino]sulfonyl}-N-methylbenzamide] | 536 nM | 171 nM | > 750 nM | 119 nM
COc1cncc(NS(=O)(=O)c2ccccc2C(=O)NCc2c(F)cccc2F)c1 [Example 207, N-(2,6-difluorobenzyl)-2-{[(5-methoxypyridin-3-yl)amino]sulfonyl}benzamide] | 105 nM | 19.1 nM | 24 nM | 5 nM
Cc1cncc(NS(=O)(=O)c2ccccc2C(=O)NCC(C)(C)C)c1 [Example 330, N-(2,2-dimethylpropyl)-2-{[(5-methylpyridin-3-yl)amino]sulfonyl}benzamide] | 204 nM | 22.7 nM | 55 nM | 60 nM
COc1cncc(NS(=O)(=O)c2ccccc2C(=O)N2CCCC2)c1 [Example 369, N-(5-methoxypyridin-3-yl)-2-(pyrrolidin-1-ylcarbonyl)benzenesulfonamide] | 350 nM | 53.2 nM | 181 nM | 98 nM
Cc1cncc(NS(=O)(=O)c2ccccc2C(=O)N(C)C(C)C)c1 [Example 281, N-isopropyl-N-methyl-2-{[(5-methylpyridin-3-yl)amino]sulfonyl}benzamide] | 468 nM | 42.6 nM | 65 nM | 31 nM
CCOc1cncc(NS(=O)(=O)c2ccccc2C(=O)NC2CCCCC2)c1 [Example 302, N-cyclohexyl-2-{[(5-ethoxypyridin-3-yl)amino]sulfonyl}benzamide] | 78.9 nM | 24.5 nM | 110 nM | 23 nM
O=C(NC1(CO)CCCC1)c1ccccc1S(=O)(=O)Nc1cccnc1 [Example 23, N-[1-(hydroxymethyl)cyclo-pentyl]-2-[(pyridin-3-ylamino)sulfonyl]benzamide] | > 1000 nM | 280 nM | 325 nM | 103 nM
COc1ccncc1NS(=O)(=O)c1ccccc1C(=O)N(C)Cc1ccc(F)c(F)c1 [Example 256, N-(3,4-difluorobenzyl)-2-{[(4-methoxypyridin-3-yl)amino]sulfonyl}-N-methylbenzamide] | 30.2 nM | 5.25 nM | 16 nM | 14.5 nM
COc1cncc(N(C)S(=O)(=O)c2ccccc2C(=O)NCc2cccc(F)c2)c1 [Example 322, N-(3-fluorobenzyl)-2-{[(5-methoxypyridin-3-yl)(methyl)amino]sulfonyl} benzamide] | 54.4 nM | 19.8 nM | 15 nM | 11 nM
CCCN(CC1CC1)C(=O)c1ccccc1S(=O)(=O)Nc1cccnc1 [Example 54, N-(cyclopropylmethyl)-N-propyl-2-[(pyridin-3-ylamino)sulfonyl]benzamide] | 239 nM | – | 26 nM | 15 nM
COc1ccncc1NS(=O)(=O)c1ccccc1C(=O)NCCc1ccccc1OC(F)(F)F [Example 221, 2-{[(4-methoxypyridin-3-yl)amino]sulfonyl}-N-{2-[2-(trifluoromethoxy)phenyl]ethyl} benzamide] | 16 nM | 8.9 nM | 12 nM | 11 nM
Cc1cncc(NS(=O)(=O)c2ccccc2C(=O)NCc2cc(Cl)cc(Cl)c2)c1 [Example 155, N-(3,5-dichlorobenzyl)-2-{[(5-methylpyridin-3-yl)amino]sulfonyl}benzamide] | 2.8 nM | 1.6 nM | 15 nM | 8 nM
COCCN(C)C(=O)c1ccccc1S(=O)(=O)Nc1cncc(C)c1 [Example 162, N-(2-methoxyethyl)-N-methyl-2-{[(5-methylpyridin-3-yl)amino]sulfonyl}benzamide] | 469 nM | 99.9 nM | 170 nM | 93 nM
COc1cncc(NS(=O)(=O)c2ccc(Cl)cc2C(=O)N2CCCC(C)C2)c1 (centres unmarked) [Example 308, 4-chloro-N-(5-methoxypyridin-3-yl)-2-[(3-methylpiperidin-1-yl)carbonyl]benzenesulfonamide] | 513 nM | 42 nM | 95 nM | 62 nM
CCCCN(C)C(=O)c1ccccc1S(=O)(=O)Nc1cnccc1C [Example 230, N-butyl-N-methyl-2-{[(4-methylpyridin-3-yl)amino]sulfonyl}benzamide] | 373 nM | 78.4 nM | 87 nM | 42 nM
CCOCCNC(=O)c1ccccc1S(=O)(=O)Nc1cnccc1OCC [Example 218, N-(2-ethoxyethyl)-2-{[(4-ethoxypyridin-3-yl)amino]sulfonyl}benzamide] | 748 nM | 146 nM | 189 nM | 96 nM
Cc1cncc(NS(=O)(=O)c2ccccc2C(=O)N(C)CCc2ccccc2)c1 [Example 344, N-methyl-2-{[(5-methylpyridin-3-yl)amino]sulfonyl}-N-(2-phenylethyl)benzamide] | 54.4 nM | 21.2 nM | 9 nM | 7 nM
COc1cncc(NS(=O)(=O)c2ccc(OCCN3CCNCC3)cc2C(=O)N(C)C(C)C)c1 [Example 242, N-isopropyl-2-{[(5-methoxypyridin-3-yl)amino]sulfonyl}-N-methyl-5-(2-piperazin-1-ylethoxy)benzamide] | 246 nM | 200 nM | 289 nM | 254 nM
COc1cncc(NS(=O)(=O)c2ccccc2C(=O)NCCc2ccccc2OC)c1 [Example 263, N-[2-(2-methoxyphenyl)ethyl]-2-{[(5-methoxypyridin-3-yl)amino]sulfonyl}benzamide] | 54.7 nM | 5.4 nM | 11 nM | 9 nM
Cc1ccc(CNC(=O)c2ccccc2S(=O)(=O)Nc2cnccc2C)cc1F [Example 166, N-(3-fluoro-4-methylbenzyl)-2-{[(4-methylpyridin-3-yl)amino]sulfonyl}benzamide] | 196 nM | 35.1 nM | 26 nM | 23 nM
COC1CCN(C(=O)c2ccccc2S(=O)(=O)Nc2cccnc2)CC1 [Example 26, 2-[(4-methoxypiperidin-1-yl)carbonyl]-N-pyridin-3-ylbenzenesulfonamide] | > 1000 nM | – | 691 nM | 494 nM
CCCCN(C)C(=O)c1ccccc1S(=O)(=O)Nc1cnccc1OCC [Example 274, N-butyl-2-{[(4-ethoxypyridin-3-yl)amino]sulfonyl}-N-methylbenzamide] | 70.1 nM | 8.85 nM | 46 nM | 25 nM
CN(c1cccnc1)S(=O)(=O)c1ccccc1C(=O)N1CCCC(C)(C)C1 [Example 345, 2-[(3,3-dimethylpiperidin-1-yl)carbonyl]-N-methyl-N-pyridin-3-ylbenzenesulfonamide] | 409 nM | 135 nM | 48 nM | 75 nM
COc1cncc(NS(=O)(=O)c2ccccc2C(=O)NCc2ccccc2OC)c1 [Example 186, N-(2-methoxybenzyl)-2-{[(5-methoxypyridin-3-yl)amino]sulfonyl}benzamide] | 171 nM | 9.7 nM | 7 nM | 6 nM
COc1ccc(CNC(=O)c2ccccc2S(=O)(=O)Nc2cccnc2)c(OC)c1 [Example 53, N-(2,4-dimethoxybenzyl)-2-[(pyridin-3-ylamino)sulfonyl]benzamide] | 613 nM | – | 49 nM | 24 nM
COc1cncc(NS(=O)(=O)c2ccccc2C(=O)NCCc2ccccc2C)c1 [Example 388, 2-{[(5-methoxypyridin-3-yl)amino]sulfonyl}-N-[2-(2-methylphenyl)ethyl]benzamide] | 16 nM | < 1 nM | 3 nM | 9 nM
COc1cncc(NS(=O)(=O)c2ccccc2C(=O)N2CCC(c3ccccc3)CC2)c1 [Example 231, N-(5-methoxypyridin-3-yl)-2-[(4-phenylpiperidin-1-yl)carbonyl]benzenesulfonamide] | 59.1 nM | 8.9 nM | 31 nM | 20 nM
COc1cc(CNC(=O)c2ccccc2S(=O)(=O)Nc2cccnc2)cc(OC)c1 [Example 51, N-(3,5-dimethoxybenzyl)-2-[(pyridin-3-ylamino)sulfonyl]benzamide] | 680 nM | – | 57 nM | 34 nM
COc1cncc(NS(=O)(=O)c2ccccc2C(=O)NCCN2CCCC2)c1 [Example 386, 2-{[(5-methoxypyridin-3-yl)amino]sulfonyl}-N-(2-pyrrolidin-1-ylethyl)benzamide] | > 1000 nM | 174 nM | > 750 nM | > 750 nM
COc1ccccc1CNC(=O)c1ccccc1S(=O)(=O)Nc1cccnc1 [Example 90, N-(2-methoxybenzyl)-2-[(pyridin-3-ylamino)sulfonyl]benzamide] | 313 nM | 25.2 nM | 36 nM | 10 nM
